pIC50: −log10 of the molar value.
Tested on: rat liver microsomes
Assay: Inhibition of ferrous ion-stimulated formation of maliondialdehyde (lipid peroxidation) in rat liver microsomes
Format: biochemical
Conditions: ferrous sulfate 1 mM, 37° C. for 1 hour, test compound in DMSO, read-out: IC50, inhibition of production of MDA (as measured by the MDA-TBA adduct)
Experimental: The in vitro antioxidant activity of Compound MH-1 was evaluated by measuring its inhibitory effect on the ferrous ion-stimulated formation of maliondialdehyde (“MDA”), an end product of lipid peroxidation, in rat liver microsomes. The antioxidant activity of Compound MH-1 was compared with the in vitro antioxidant activity of α-tocopherol, a known antioxidant. A modified procedure originally described in Bernheim et al., “The Reaction Between Thiobarbituric Acid and the Oxidation Products of Certain Lipids,” J. Biol. Chem., 174:257-264 (1948) and Wills, “Lipid Peroxide Formation in Microsomes,” Biochem. J., 113:325-332 (1969), which are hereby incorporated by reference, was used to carry out the assay.
Freshly harvested rat livers (100 mg/ml) were homogenized in Tris-KCl buffer (0.05M, pH 7.4). The microsomal fraction was isolated by differential centrifugation (40,000 rpm; 106,000 g) and resuspended in Tris-KCl (100 mg/ml, initial concentration). The microsomal suspension was incubated with or without the test compound (Compound MH-1 in DMSO, 0.0-0.5mM or α-tocopherol in dimethylsulfoxide, 0.0-0.6 mM) at 37° C. for 3 minutes. […] Maliondialdeyde-TBA adduct concentrations in the butanol extract were measured by fluorescence spectroscopy (emission 553 nm, excitation 532 nm). […]

Structure (SMILES)	pIC50
Cc1c(C)c2c(c(C)c1OC(=O)CCCC[C@@H]1CCSS1)CC[C@@](C)(CC[C@H](C)CCC[C@H](C)CCCC(C)C)O2 [Compound MH-1]	3.58
Cc1c(C)c2c(c(C)c1O)CC[C@@](C)(CCC[C@H](C)CCC[C@H](C)CCCC(C)C)O2 [α-tocopherol]	3.51
